# Measurements taken from paper PMC5951580, “The effect of acylation with fatty acids and other modifications on HLA class II:peptide binding and T cell stimulation for three model peptides” (PLoS ONE, 2018).
# Columns and labels:
# [1] = test system: PBMCs from healthy donors; assay: Two-week re-stimulation T cell assay with IFN-γ, IL-5 and IL-10 fluorospot; assay type: cell-based, human; settings: for Frequency of responding donors (all cytokines) / Frequency of responding donors compared to the non-acylated peptide (in words) / Magnitude of the response (SFC, all cytokines) compared to the non-acylated peptide (in words): peptide 50 μg/ml, IFN-γ/IL-5/IL-10 fluorospot, n = 22; for Frequency of responding donors (all cytokines): 14 days stimulation with IL-2, re-stimulation 20h, one positive hit for one cytokine equals a positive donor; for Frequency of responding donors compared to the non-acylated peptide (in words) / Magnitude of the response (SFC, all cytokines) compared to the non-acylated peptide (in words): re-stimulation
# [2] = human, in vivo; cited from earlier work
# HLA-DR alleles = test system: HLA-DR alleles; set-up: species or system human; settings: 15 HLA-DR alleles analyzed, IC50 of 1000 nM as binding threshold
# HLA-DQA1*01:02/B1*06:02 = HLA-DQA1*01:02/B1*06:02 (Homo sapiens, UniProt P01909+P01920, A157G/A45G/C70R/E118A/E183D/E77G/F83G/G63E/H151Q/H199R/H252R/H253Q/I129T/I235V/I88M/INS77G/K197Q/L117V/L119F/L178F/L71W/L74F/L85Q/L91A/L98M/N214S/P87R/Q116E/Q76K/R102G/R240Q/R75S/R78G/S102Y/S185I/S41F/S97I/T121G/T122I/T172A/T86R/V229M/V68A/V73E/Y34C/Y41F/Y58L); assay type: binding; settings: threshold IC50 1000 nM
# [3] = cited from earlier work
# HLA-DQA1*01:02/B1*06:02, sequence (P01920 33-261 with the stated changes limits assumed, other chains not shown): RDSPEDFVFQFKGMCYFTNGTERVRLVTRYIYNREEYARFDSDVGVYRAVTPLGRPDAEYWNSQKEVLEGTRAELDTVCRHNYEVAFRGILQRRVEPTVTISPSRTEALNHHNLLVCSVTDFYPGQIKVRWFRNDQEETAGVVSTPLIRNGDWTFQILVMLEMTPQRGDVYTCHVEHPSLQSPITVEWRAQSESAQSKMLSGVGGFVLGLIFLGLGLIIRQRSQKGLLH
substance,measurement,setting,value
Peptide 12: Exendin-4 acylated with C18 via Oeg-Oeg-LγGlu at C-terminus,Frequency of responding donors (all cytokines),[1],10%
"Peptide 7: Exendin-4 (1–39), 39-aa peptide used for the treatment of diabetes mellitus type 2, non-acylated",Frequency of responding donors (all cytokines),[1],40%
same,Patients treated with the compound that show an immunogenic response,[2],40–60%
"QLLDRGATALVLQVLNVPRLMTQD [Peptide 14, Vatreptacog alfa (285–309) peptide fragment, 25-aa, non-acylated]",Frequency of responding donors (all cytokines),[1],45%
Peptide 10: Exendin-4 acylated with C18 via Oeg-Oeg-LγGlu at 20 (WT R to K),Frequency of responding donors compared to the non-acylated peptide (in words),[1]; 14 days stimulation,further decreases
same,"Magnitude of the response (SFC, all cytokines) compared to the non-acylated peptide (in words)",[1]; 14 days stimulation,decreased magnitudes
Peptide 13: Exendin-4 acylated with 2 x C18 via Oeg-Oeg-LγGlu at 12 (K) + 27 (K),Frequency of responding donors compared to the non-acylated peptide (in words),[1]; 14 days stimulation,decreased
same,"Magnitude of the response (SFC, all cytokines) compared to the non-acylated peptide (in words)",[1]; 14 days stimulation,decreased
Peptide 11: Exendin-4 acylated with C18 via Oeg-Oeg-LγGlu at 27 (K),Frequency of responding donors (all cytokines),[1],None
PKYVKQNTLKLAT [Peptide 1],HLA-DR alleles that bound the peptide with an affinity of 1000 nM or better (number/number analyzed),HLA-DR alleles,12/15
same,HLA-DR alleles that bound the peptide with an affinity of 1000 nM or better,"HLA-DR alleles; radiolabeled peptide competition, two-day incubation, three or more independent experiments",80%
same,HLA-DQA1*01:02/B1*06:02 binding capacity (binder / non-binder),HLA-DQA1*01:02/B1*06:02,non-binder
same,"Cytokine response (IFN-γ, IL-5, IL-10 secreting cells) in words","[1]; peptide 5 μg/ml, 14 days stimulation, re-stimulation 20 hours, fluorospot, seven donors","significant numbers of IFN-γ, IL-5 and IL-10 producing cells"
same,Donors with an immunogenic response,[3],approximately 30%
